The test system of assay [1] is osteoclast precursors. Briefly: Osteoclast tartrate-resistant acid phosphatase assay. Format: cell-based. The settings on record: 7-14 days, RANKL and M-CSF. On the procedure: Diluted compound was transferred to a 384-well black clear bottom plate. Two-thousand five hundred osteoclast precursors (Lonza, Walkersville, Md.) were added per well in growth media containing Receptor Activator of Nuclear Factor Kappa-beta ligand (RANKL) and M-CSF (R&D Systems, Minneapolis, Minn.). Plates were incubated for 7-14 days at 37 degrees Celsius, 5% CO2, and 95% humidity to allow differentiation of osteoclast precursors. […] Tartrate-resistant acid phosphatase activity in the supernatant samples was determined using an acid phosphatase assay kit (Sigma, St. Louis, Mo.). Absorbance was measured at 550 nm using a plate reader. Data was analyzed using Prism software (Graphpad, San Diego, Calif.) to calculate IC50 values.

The target of assay [2] is T1, unphosphorylated PDGFRβ kinase (uPDGFRβ, Seq. ID No. 3) (Homo sapiens, UniProt P09619).
T1 construct: purchased DeCode
T1 sequence (P09619 557-1105): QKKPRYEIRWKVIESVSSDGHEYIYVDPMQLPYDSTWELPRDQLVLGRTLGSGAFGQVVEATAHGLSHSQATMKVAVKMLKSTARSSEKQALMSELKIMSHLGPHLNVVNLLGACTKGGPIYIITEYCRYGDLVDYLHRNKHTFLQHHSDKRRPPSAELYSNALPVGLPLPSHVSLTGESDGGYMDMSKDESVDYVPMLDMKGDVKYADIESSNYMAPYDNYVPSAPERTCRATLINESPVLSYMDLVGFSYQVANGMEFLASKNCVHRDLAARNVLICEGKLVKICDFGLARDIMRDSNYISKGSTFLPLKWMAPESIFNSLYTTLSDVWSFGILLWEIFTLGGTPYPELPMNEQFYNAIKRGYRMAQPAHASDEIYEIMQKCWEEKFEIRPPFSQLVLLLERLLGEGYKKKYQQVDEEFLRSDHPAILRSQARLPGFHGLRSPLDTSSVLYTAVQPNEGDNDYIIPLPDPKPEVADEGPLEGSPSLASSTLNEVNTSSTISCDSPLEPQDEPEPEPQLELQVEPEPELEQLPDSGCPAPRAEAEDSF
Briefly: Unphosphorylated PDGFRβ kinase assay (pyruvate kinase/lactate dehydrogenase coupled). Format: biochemical. As to conditions: ATP 500 μM. From the text: Unphosyhorylated PDGFRβ (uPDGFRβkinase (Seq. ID No. 3) assay

Assay [3] has as its target T2, unphosphorylated c-KIT kinase (uKIT, Seq. ID no. 2) (Homo sapiens, UniProt P10721).
T2 construct: uKit with N-terminal GST fusion used for
Description: uKit kinase assay (pyruvate kinase/lactate dehydrogenase coupled). The settings on record: ATP 2000 μM. It counts as biochemical.
Description: In this assay, the oxidation of NADH (thus the decrease at A340 nm) was continuously monitored spectrophometrically. […] The inhibition reaction was started by mixing serial diluted test compound with the above reaction mixture. The absorption at 340 nm was monitored continuously for 4 hours at 30° C. on Synergy 2 plate reader (BioTech).

Assay [4] deals with M-NFS-60 cells. Description: M-NFS-60 cell proliferation assay. It counts as cell-based. As to conditions: 67 h incubation, resazurin.
Description: M-NFS-60 Cell Proliferation Assay A serial dilution of test compound was dispensed into a 384-well black clear bottom plate (Corning, Corning, N.Y.). Two thousand five hundred cells were added per well in 50 μL complete growth medium. […] IC50 values were calculated from a series of percent inhibition values determined at a range of inhibitor concentrations using software routines as implemented in the GraphPad Prism software package.
The target in assay [5] is T3, phospho-FMS in THP-1 cells (Homo sapiens, UniProt P07333).
T3 construct: endogenous in cells; host or cells: THP-1 (ATCC TIB-202)
T3 sequence (P07333 20-972): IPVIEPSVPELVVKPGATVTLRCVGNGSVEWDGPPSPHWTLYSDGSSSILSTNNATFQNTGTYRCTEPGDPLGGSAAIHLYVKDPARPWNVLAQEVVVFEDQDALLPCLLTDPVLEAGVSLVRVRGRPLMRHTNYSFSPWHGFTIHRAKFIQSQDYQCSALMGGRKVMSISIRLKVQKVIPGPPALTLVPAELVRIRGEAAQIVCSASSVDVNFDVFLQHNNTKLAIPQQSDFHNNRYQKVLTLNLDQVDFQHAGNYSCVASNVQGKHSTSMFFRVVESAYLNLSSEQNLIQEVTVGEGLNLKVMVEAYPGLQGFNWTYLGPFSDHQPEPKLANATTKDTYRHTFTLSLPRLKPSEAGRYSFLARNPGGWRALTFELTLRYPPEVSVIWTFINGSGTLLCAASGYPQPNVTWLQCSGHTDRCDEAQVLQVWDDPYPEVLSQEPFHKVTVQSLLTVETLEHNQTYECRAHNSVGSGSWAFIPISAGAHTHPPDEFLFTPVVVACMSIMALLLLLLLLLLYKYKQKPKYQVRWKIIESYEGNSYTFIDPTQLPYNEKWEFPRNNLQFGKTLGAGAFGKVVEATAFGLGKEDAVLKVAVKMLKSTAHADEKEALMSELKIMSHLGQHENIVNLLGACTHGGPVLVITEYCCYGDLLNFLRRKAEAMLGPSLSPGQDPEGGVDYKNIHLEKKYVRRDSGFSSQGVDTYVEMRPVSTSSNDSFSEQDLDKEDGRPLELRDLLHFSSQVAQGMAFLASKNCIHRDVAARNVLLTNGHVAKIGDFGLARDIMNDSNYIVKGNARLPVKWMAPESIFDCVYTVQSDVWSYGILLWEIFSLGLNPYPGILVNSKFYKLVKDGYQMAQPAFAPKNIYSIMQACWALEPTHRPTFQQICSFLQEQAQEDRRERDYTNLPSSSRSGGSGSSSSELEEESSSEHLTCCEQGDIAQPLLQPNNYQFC
Description: Phospho-FMS ELISA assay in THP-1 cells. Format: cell-based. The settings on record: 4 hours compound, M-CSF stimulated; read-out: pFMS inhibition in THP-1 cells.
Description: In a separate 96 well black clear bottom plate, one hundred and fifty thousand THP-1 cells were added per well in 100 μL in assay medium. Fifty microliters of diluted compound was then added to the cells. […] Lysates were prepared and used to perform the phospho-FMS ELISA as described by the manufacturer (catalog #DYC3268, R & D Systems, Minneapolis, Minn.). GraphPad Prism was used to calculate IC50 values obtained from data generated from the ELISA assay.

Assay [6] addresses T4, unphosphorylated c-FMS kinase (uFMS, Seq. ID no. 1) (Homo sapiens, UniProt P07333).
T4 construct: purchased Millipore
T4 sequence (P07333 538-972): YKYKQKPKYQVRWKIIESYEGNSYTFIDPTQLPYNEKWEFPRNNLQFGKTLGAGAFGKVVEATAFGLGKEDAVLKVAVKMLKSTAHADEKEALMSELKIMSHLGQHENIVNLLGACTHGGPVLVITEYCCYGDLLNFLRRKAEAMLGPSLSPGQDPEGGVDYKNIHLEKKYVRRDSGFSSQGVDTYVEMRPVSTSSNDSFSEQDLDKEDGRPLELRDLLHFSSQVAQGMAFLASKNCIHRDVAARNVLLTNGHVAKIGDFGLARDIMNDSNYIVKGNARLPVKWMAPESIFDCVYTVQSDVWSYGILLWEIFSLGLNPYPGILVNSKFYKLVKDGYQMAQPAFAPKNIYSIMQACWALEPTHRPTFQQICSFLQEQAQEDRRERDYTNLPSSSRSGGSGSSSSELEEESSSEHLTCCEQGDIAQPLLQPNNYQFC
Briefly: uFMS kinase assay (pyruvate kinase/lactate dehydrogenase coupled). Format: biochemical. The settings on record: ATP 500 μM.
Description: In this assay, the oxidation of NADH (thus the decrease at A340 nm) was continuously monitored spectrophometrically. The reaction mixture (100 μL) contained FMS (purchased from Millipore) (10 nM), polyE4Y (1 mg/mL), MgCl2 (10 mM), pyruvate kinase (4 units), lactate dehydrogenase (0.7 units), phosphoenol pyruvate (1 mM), NADH (0.28 mM) and ATP (500 μM) in 90 mM Tris buffer containing 0.2% octyl-glucoside and 1% DMSO, pH 7.5. The inhibition reaction was started by mixing serial diluted test compound with the above reaction mixture. The absorption at 340 nm was monitored continuously for 4 hours at 30° C. on Synergy 2 plate reader. The reaction rate was calculated using the 3 to 4 h time frame. Percent inhibition was obtained by comparison of reaction rate with that of a control (i.e. in the absence of test compound). IC50 values were calculated from a series of percent inhibition values determined at a range of inhibitor concentrations using software routines as implemented in the GraphPad Prism software package.

T2 sequence (P10721 with tags, fused parts or gaps): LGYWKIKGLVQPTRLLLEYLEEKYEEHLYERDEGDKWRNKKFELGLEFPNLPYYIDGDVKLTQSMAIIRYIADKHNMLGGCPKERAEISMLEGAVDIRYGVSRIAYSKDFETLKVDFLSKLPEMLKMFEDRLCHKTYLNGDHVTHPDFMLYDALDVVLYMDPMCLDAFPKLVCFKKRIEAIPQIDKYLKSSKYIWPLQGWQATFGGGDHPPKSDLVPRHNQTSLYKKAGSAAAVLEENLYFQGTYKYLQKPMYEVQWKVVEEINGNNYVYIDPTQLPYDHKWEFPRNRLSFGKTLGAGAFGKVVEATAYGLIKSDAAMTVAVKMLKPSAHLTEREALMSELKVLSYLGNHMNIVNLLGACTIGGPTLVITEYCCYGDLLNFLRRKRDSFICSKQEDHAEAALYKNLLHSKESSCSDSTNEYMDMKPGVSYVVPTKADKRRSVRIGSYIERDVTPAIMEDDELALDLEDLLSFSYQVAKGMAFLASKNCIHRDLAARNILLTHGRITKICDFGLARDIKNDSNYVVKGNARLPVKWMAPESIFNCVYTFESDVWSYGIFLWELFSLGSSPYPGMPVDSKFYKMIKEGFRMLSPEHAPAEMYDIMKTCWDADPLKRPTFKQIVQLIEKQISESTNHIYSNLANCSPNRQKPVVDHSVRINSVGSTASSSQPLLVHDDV

`CC(=O)Nc1cc(Oc2ccc(NC(=O)NC(=O)C3CCCC3)nc2)ccn1` [Example 2, N-((5-((2-acetamidopyridin-4-yl)oxy)pyridin-2-yl)carbamoyl)cyclopentanecarboxamide]: the IC50 in assay [1] (Osteoclast) is less than 0.01 µM; in assay [2] it was less than 0.01 µM; in assay [3], 0.1 to 1 µM; in assay [4], 0.01 to 0.1 µM; in assay [5], 0.01 to 0.1 µM; in assay [6], less than 0.01 µM.
In the case of `CC(=O)Nc1cc(Oc2ccc(NC(=O)NC(=O)C3CCOCC3)nc2)ccn1` [Example 5, N-((5-((2-acetamidopyridin-4-yl)oxy)pyridin-2-yl)carbamoyl)tetrahydro-2H-pyran-4-carboxamide], the IC50 was less than 0.01 µM in assay [1] (Osteoclast); 0.1 to 1 µM in assay [2]; 0.1 to 1 µM in assay [3]; 0.01 to 0.1 µM in assay [4]; less than 0.01 µM in assay [5]; 0.01 to 0.1 µM in assay [6].
`CC(=O)Nc1cc(Oc2ccc(NC(=O)NC(=O)C3CCOCC3)nc2C)ccn1` [Example 7, N-((5-((2-acetamidopyridin-4-yl)oxy)-6-methylpyridin-2-yl)carbamoyl)tetrahydro-2H-pyran-4-carboxamide]: the IC50 in assay [1] (Osteoclast) was 0.01 to 0.1 µM; in assay [2], 0.1 to 1 µM; in assay [3] it was greater than 1 µM; in assay [4], 0.01 to 0.1 µM; in assay [5] it was less than 0.01 µM; in assay [6] it was 0.01 to 0.1 µM.
On to `Cn1cc(C(=O)Nc2cc(Oc3ccc(NC(=O)NC(=O)C(C)(C)C)nc3)ccn2)cn1` [Example 52, 1-methyl-N-(4-((6-(3-pivaloylureido)pyridin-3-yl)oxy)pyridin-2-yl)-1H-pyrazole-4-carboxamide], for which the IC50 in assay [1] (Osteoclast) was less than 0.01 µM; in assay [2], 0.1 to 1 µM; in assay [3] it was 0.01 to 0.1 µM; in assay [4], less than 0.01 µM; in assay [6], less than 0.01 µM.
Regarding `CC(C)(C)C(=O)NC(=O)Nc1ccc(Oc2ccnc(NC(=O)CN3CCCC3)c2)cn1` [Example 53, N-((5-((2-(2-(pyrrolidin-1-yl)acetamido)pyridin-4-yl)oxy)pyridin-2-yl)carbamoyl)pivalamide], the IC50 is 0.01 to 0.1 µM in assay [1] (Osteoclast); greater than 1 µM in assay [2]; greater than 1 µM in assay [3]; greater than 1 µM in assay [4]; 0.01 to 0.1 µM in assay [6].
`CN(C)CC(=O)Nc1cc(Oc2ccc(NC(=O)NC(=O)C(C)(C)C)nc2)ccn1` [Example 54, N-((5-((2-(2-(dimethylamino)acetamido)pyridin-4-yl)oxy)pyridin-2-yl)carbamoyl)pivalamide]: the IC50 was 0.1 to 1 µM in assay [1] (Osteoclast); greater than 1 µM in assay [2]; greater than 1 µM in assay [3]; 0.1 to 1 µM in assay [4]; 0.01 to 0.1 µM in assay [6].
Take `CN1CCC(C(=O)Nc2cc(Oc3ccc(NC(=O)NC(=O)C(C)(C)C)nc3)ccn2)C1` (stereo not shown) [Example 55, 1-methyl-N-(4-((6-(3-pivaloylureido)pyridin-3-yl)oxy)pyridin-2-yl)pyrrolidine-3-carboxamide]: the IC50 is 0.1 to 1 µM in assay [1] (Osteoclast); greater than 1 µM in assay [2]; greater than 1 µM in assay [3]; greater than 1 µM in assay [4]; 0.01 to 0.1 µM in assay [6].
For the molecule `CC(C)(C)C(=O)NC(=O)Nc1ccc(Oc2ccnc(NC(=O)CC#N)c2)cn1` [Example 56, N-((5-((2-(2-cyanoacetamido)pyridin-4-yl)oxy)pyridin-2-yl)carbamoyl)pivalamide], the IC50 in assay [1] (Osteoclast) was 0.1 to 1 µM; in assay [2], 0.1 to 1 µM; in assay [3], greater than 1 µM; in assay [4] it was greater than 1 µM; in assay [6], 0.01 to 0.1 µM.
Regarding `CC(C)C(=O)NC(=O)Nc1ccc(Oc2ccnc(NC(=O)C3CCN(C)CC3)c2)cn1` [Example 57, N-(4-((6-(3-isobutyrylureido)pyridin-3-yl)oxy)pyridin-2-yl)-1-methylpiperidine-4-carboxamide], the IC50 in assay [1] (Osteoclast) was 0.1 to 1 µM; in assay [2] it was greater than 1 µM; in assay [3], greater than 1 µM; in assay [4], greater than 1 µM; in assay [6], 0.1 to 1 µM.
With `Cn1cnc(C(=O)Nc2cc(Oc3ccc(NC(=O)NC(=O)C(C)(C)C)nc3)ccn2)c1` [Example 59, 1-methyl-N-(4-((6-(3-pivaloylureido)pyridin-3-yl)oxy)pyridin-2-yl)-1H-imidazole-4-carboxamide], the IC50 in assay [1] (Osteoclast) is less than 0.01 µM; in assay [2] it was 0.1 to 1 µM; in assay [3] it was 0.1 to 1 µM; in assay [4] it was less than 0.01 µM; in assay [6], less than 0.01 µM.
Regarding `CN(C)C1CC(C(=O)Nc2cc(Oc3ccc(NC(=O)NC(=O)C(C)(C)C)nc3)ccn2)C1` (stereo not shown) [Example 60, (1s,3s)-3-(dimethylamino)-N-(4-((6-(3-pivaloylureido)pyridin-3-yl)oxy)pyridin-2-yl)cyclobutanecarboxamide], the IC50 in assay [1] (Osteoclast) was 0.01 to 0.1 µM; in assay [2] it was 0.1 to 1 µM; in assay [3], greater than 1 µM; in assay [4] it was 0.1 to 1 µM; in assay [6] it was 0.01 to 0.1 µM.
In the case of `CN(C)C1CC(C(=O)Nc2cc(Oc3ccc(NC(=O)NC(=O)C(C)(C)C)nc3)ccn2)C1` (stereo not shown) [Example 61, (1r,3r)-3-(dimethylamino)-N-(4-((6-(3-pivaloylureido)pyridin-3-yl)oxy)pyridin-2-yl)cyclobutanecarboxamide], the IC50 in assay [1] was 0.01 to 0.1 µM; in assay [2] it was 0.1 to 1 µM; in assay [3], greater than 1 µM; in assay [4], 0.1 to 1 µM; in assay [6] it was 0.01 to 0.1 µM.
As to `CNC(=O)c1cc(Oc2ccc(NC(=O)NC(=O)C3(C(F)(F)F)CCC3)nc2)ccn1` [Example 72, N-methyl-4-((6-(3-(1-(trifluoromethyl)cyclobutanecarbonyl)ureido)pyridin-3-yl)oxy)picolinamide], the IC50 in assay [1] (Osteoclast) is 0.01 to 0.1 µM; in assay [2], greater than 1 µM; in assay [3], greater than 1 µM; in assay [4], 0.1 to 1 µM; in assay [6], 0.01 to 0.1 µM.
As for `CC(C)NC(=O)c1cc(Oc2ccc(NC(=O)NC(=O)C(C)(C)C)nc2)ccn1` [Example 73, N-isopropyl-4-((6-(3-pivaloylureido)pyridin-3-yl)oxy)picolinamide], the IC50 is 0.01 to 0.1 µM in assay [1] (Osteoclast); greater than 1 µM in assay [2]; greater than 1 µM in assay [3]; greater than 1 µM in assay [4]; 0.1 to 1 µM in assay [6].
As to `CC(C)(C)C(=O)NC(=O)Nc1ccc(Oc2ccnc(C(=O)NC3CC3)c2)cn1` [Example 74, N-cyclopropyl-4-((6-(3-pivaloylureido)pyridin-3-yl)oxy)picolinamide], the IC50 was 0.01 to 0.1 µM in assay [1] (Osteoclast); greater than 1 µM in assay [2]; greater than 1 µM in assay [3]; 0.1 to 1 µM in assay [4]; 0.01 to 0.1 µM in assay [6].
Regarding `CN1CCC(NC(=O)c2cc(Oc3ccc(NC(=O)NC(=O)C(C)(C)C)nc3)ccn2)CC1` [Example 75, N-(1-methylpiperidin-4-yl)-4-((6-(3-pivaloylureido)pyridin-3-yl)oxy)picolinamide], the IC50 is 0.01 to 0.1 µM in assay [1] (Osteoclast); greater than 1 µM in assay [2]; greater than 1 µM in assay [3]; greater than 1 µM in assay [4]; 0.1 to 1 µM in assay [6].
Consider `CC(C)(C)C(=O)NC(=O)Nc1ccc(Oc2ccnc(NC(=O)N3CCCC3)c2)cn1` [Example 78, N-(4-((6-(3-pivaloylureido)pyridin-3-yl)oxy)pyridin-2-yl)pyrrolidine-1-carboxamide], for which the IC50 in assay [1] (Osteoclast) is less than 0.01 µM; in assay [2] it was 0.01 to 0.1 µM; in assay [3], 0.01 to 0.1 µM; in assay [4], less than 0.01 µM; in assay [6], less than 0.01 µM.

The record behind these values is US9309224B2 (Deciphera Pharmaceuticals, LLC, priority 2013, dated 2016).
